Test results reported in patent US12410160B2 (Gilead Sciences, Inc., priority 2021, dated 2025).
Like-named read-outs stand apart in the source and are kept apart here.

Legend:
human KHK-C = human KHK-C (Homo sapiens (Human), UniProt P50053); assay: KHK Biochemical Assay (IC50), ADP-Glo, KHK-C; details: average of at least two separate assays
Outline: (§1)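 His-tagged enzyme expressed in BL21 (DE3), Ni-NTA purified. Compounds, serially diluted 1:3 in DMSO, pre-incubated 30 min with enzyme in 50 mM Hepes pH 7.4, 140 mM KCl, 5 mM MgCl2, 0.01% Triton-X, then ATP and fructose added; 4 h at room temperature. ADP formation read by ADP-Glo luminescence.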

human KHK-A = human KHK-A (Homo sapiens (Human), UniProt P50053); assay: KHK Biochemical Assay (IC50), ADP-Glo, KHK-A; details: average of at least two separate assays
Chain of human KHK-A (P50053 other isoform, or with tags, fused parts or gaps): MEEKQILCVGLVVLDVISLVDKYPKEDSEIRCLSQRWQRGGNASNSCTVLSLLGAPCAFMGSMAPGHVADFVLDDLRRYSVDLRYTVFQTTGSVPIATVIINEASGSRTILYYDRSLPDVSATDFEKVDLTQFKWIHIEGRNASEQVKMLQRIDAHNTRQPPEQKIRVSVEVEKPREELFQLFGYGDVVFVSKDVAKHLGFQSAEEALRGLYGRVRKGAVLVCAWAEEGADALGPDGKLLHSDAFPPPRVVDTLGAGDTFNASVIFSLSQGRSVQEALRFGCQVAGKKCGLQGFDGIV
Outline: as §1

[1] = target: KHK-C expressed in NRK-52E cells (Homo sapiens (Human), UniProt P50053); assay: KHK-C Cell-based Assay (EC50), NRK CTG, fructose-mediated ATP-depletion
Chain of KHK-C expressed in NRK-52E cells (P50053 whole entry): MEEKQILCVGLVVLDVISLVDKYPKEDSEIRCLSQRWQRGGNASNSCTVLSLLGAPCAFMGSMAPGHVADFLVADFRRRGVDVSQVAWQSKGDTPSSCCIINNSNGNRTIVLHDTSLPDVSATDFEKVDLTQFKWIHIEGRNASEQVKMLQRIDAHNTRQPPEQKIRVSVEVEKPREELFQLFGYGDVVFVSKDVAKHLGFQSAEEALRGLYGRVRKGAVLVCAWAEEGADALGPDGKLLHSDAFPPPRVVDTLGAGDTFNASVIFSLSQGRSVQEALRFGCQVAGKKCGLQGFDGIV

human OATP1B1 [2] = target: T1, human OATP1B1 (Homo sapiens (Human), UniProt Q9Y6L6); assay: In Vitro Inhibition Assessment with Human OATP1B1 Transporter; assay type: in vitro ADME; details: HEK293-OATP1B1 cells, probe substrate pravastatin
T1 sequence (Q9Y6L6 whole entry): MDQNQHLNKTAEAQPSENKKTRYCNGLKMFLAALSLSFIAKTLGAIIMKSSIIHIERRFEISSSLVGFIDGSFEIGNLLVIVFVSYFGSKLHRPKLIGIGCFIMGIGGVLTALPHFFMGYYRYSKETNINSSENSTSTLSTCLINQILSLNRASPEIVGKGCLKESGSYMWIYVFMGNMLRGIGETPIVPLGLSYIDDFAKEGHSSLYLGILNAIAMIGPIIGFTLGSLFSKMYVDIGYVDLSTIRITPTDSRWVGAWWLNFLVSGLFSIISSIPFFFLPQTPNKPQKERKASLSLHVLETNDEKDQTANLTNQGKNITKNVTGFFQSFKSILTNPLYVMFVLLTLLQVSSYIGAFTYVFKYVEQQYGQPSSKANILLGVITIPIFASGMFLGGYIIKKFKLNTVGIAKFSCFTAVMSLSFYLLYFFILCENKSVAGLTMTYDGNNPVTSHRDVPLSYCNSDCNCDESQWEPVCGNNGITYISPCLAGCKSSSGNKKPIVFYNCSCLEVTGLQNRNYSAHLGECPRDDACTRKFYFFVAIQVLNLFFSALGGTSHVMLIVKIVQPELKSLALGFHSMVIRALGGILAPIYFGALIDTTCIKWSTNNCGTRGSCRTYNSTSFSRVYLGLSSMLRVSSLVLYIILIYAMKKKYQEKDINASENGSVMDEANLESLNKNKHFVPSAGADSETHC
Outline: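 HEK293-OATP1B1 and mock cells were preincubated 15 min with compound in HBSS. They were then coincubated 5 min with compound plus pravastatin (0.4% DMSO final), and intracellular substrate was quantified by LC-MS/MS. Mock-corrected uptake relative to solvent gave percentage activity, from which IC50 was fitted.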

HepG2 cells = assay: F1P Cell-Based Assay (EC50), 13C6-fructose-1-phosphate in HepG2 cells (cell culture medium or 50% human plasma); details: Homo sapiens
[3] = pKa analysis by capillary electrophoresis (pKa PRO Analyzer, co-solvent method); assay type: physicochemical; details: methanol/aqueous co-solvent buffers, co-solvent method (60% to 30% methanol buffers)
Outline: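 Capillary electrophoresis by the co-solvent method, with 100 μM compound and 1% DMSO in 2 mM HCl or NaOH at 60% methanol.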

human OATP1B1 [4] = target: T1, human OATP1B1; assay: In Vitro Substrate Assessment with Human OATP1B1 Transporter; assay type: in vitro ADME; details: HEK293-OATP1B1 vs mock cells; substrate if uptake ≥2-fold of mock and decreased by ≥30% with known OATP inhibitor
Excerpt: In Vitro Substrate Assessment with Human OATP1B1 and OATP1B3 Transporters
The purpose of this assay was to assess whether test articles (TAs), were substrates for the hepatic uptake transporters organic anion transporting polypeptide (OATP) 1B1 (SLCO1B1) and 1B3 (SLCO1B3) using non-transfected (Mock) and transfected human embryonic kidney (HEK293) cells. […] On assay day, media were removed from the assay plates and cells were washed with Hanks' Balanced Salt Solution (HBSS Buffer) (Corning, Cat. #21-023-CV). Cells were preincubated with HBSS buffer with or without known OATP inhibitors for 30 minutes. […] The incubation period was 2 minutes. Cells were then washed three times with ice cold HBSS buffer and then were immediately extracted with methanol:water (70:30 v:v) containing internal standard labetolol (30 nM). The supernatants were evaporated to dryness on injection plates and reconstituted in 80% water containing 20% acetonitrile and 0.1% formic acid for analysis by liquid chromatography with tandem mass spectrometry (LC-MS-MS).
The rate of uptake into cells was determined by the following formula: Rate of uptake=(A*B)/(C*D)
• A: concentration of compound in cell lysate • B: volume of sample • C: Incubation time • D: millions of cells in sample
A TA was considered a substrate for OATP transporter if: (1) the rate of uptake in the transporter transfected cells was ≥2-fold of the rate of uptake in the mock cells; and (2) the rate of uptake in the transporter transfected cells was decreased by ≥30% in the presence of a known OATP inhibitor.

[5] = HepG2, HepG2 cells, 50% human plasma, read-out: F1P 50% HP EC50
[6] = HepG2, read-out: F1P 10% FBS EC50, HepG2 cells, cell culture medium (10% FBS)
[7] = pH range 1.7-11.2, read-out: 1st pKa
[8] = pH range 1.7-11.2, read-out: 2nd pKa

Chain of human KHK-C (P50053 whole entry): as the sequence (P50053 whole entry) above

NC1(c2ccc(-c3nc(N4CC[C@@H]4C(F)(F)F)nc4c3CCC4(F)F)cc2)COC1 [Example 696, 3-[4-[7,7-difluoro-2-[(2R)-2-(trifluoromethyl)azetidin-1-yl]-5,6-dihydrocyclopenta[d]pyrimidin-4-yl]phenyl]oxetan-3-amine]
IC50 (human KHK-C): 0.5 nM
IC50 (human KHK-A): 1 nM
EC50 [1]: 5.7 nM
IC50 (human OATP1B1 [2]): 5410 nM
EC50 (HepG2 cells; [5]): 6.8 nM
EC50 (HepG2 cells; [6]): 1.7 nM
pKa [3, 7]: 6.3

C[C@H]1CCN1c1nc(N2C[C@@H]3[C@@H](CC(=O)O)[C@@H]3C2)c2c(n1)C(F)(F)CCC2 [Reference Compound 6, reference compound]
OATP1B1 Substrate (human OATP1B1 [4]): YES
IC50 (human OATP1B1 [2]): 960 nM

NC1(c2ccc(-c3nc(N4CC[C@@H]4CF)nc4c3CCC4(F)F)cc2)COC1 [Example 471, (R)-3-(4-(7,7-difluoro-2-(2-(fluoromethyl)azetidin-1-yl)-6,7-dihydro-5H-cyclopenta[d]pyrimidin-4-yl)phenyl)oxetan-3-amine]
IC50 (human KHK-C): 2 nM
IC50 (human KHK-A): 7 nM
EC50 [1]: 6.4 nM
IC50 (human OATP1B1 [2]): 23300 nM
EC50 (HepG2 cells; [5]): 13.2 nM
EC50 (HepG2 cells; [6]): 8.4 nM
pKa [3, 7]: 6.1

COc1ccc(-c2nc(N3C[C@@H](O)[C@@H]3C)nc3c2CCC3(F)F)cc1[S@@](C)(=N)=O (single isomer, unassigned) [Example 495]
IC50 (human KHK-C): 1.5 nM
IC50 (human KHK-A): 0.7 nM
EC50 [1]: 16 nM
IC50 (human OATP1B1 [2]): > 40000 nM
EC50 (HepG2 cells; [5]): 2.3 nM
EC50 (HepG2 cells; [6]): 1.1 nM
pKa [3, 7]: 2.5

C[C@H]1[C@H](O)CN1c1nc(-c2ccc(C3(N)CC(F)(F)C3)cc2)c2c(n1)C(F)(F)CC2 [Example 646, (2S,3R)-1-[4-[4-(1-amino-3,3-difluoro-cyclobutyl)phenyl]-7,7-difluoro-5,6-dihydrocyclopenta[d]pyrimidin-2-yl]-2-methyl-azetidin-3-ol]
IC50 (human KHK-C): 2.7 nM
EC50 [1]: 7.4 nM
IC50 (human OATP1B1 [2]): 5010 nM
EC50 (HepG2 cells; [5]): 22.4 nM
EC50 (HepG2 cells; [6]): 14.3 nM
pKa [3, 7]: 6.6

NC1(c2ccc(-c3nc(N4CC[C@@H]4C(F)F)nc4c3CCC4(F)F)cc2)COC1 (single isomer, unassigned) [Example 687]
IC50 (human KHK-C): 1.2 nM
IC50 (human KHK-A): 2.8 nM
EC50 [1]: 6.2 nM
IC50 (human OATP1B1 [2]): 6550 nM
EC50 (HepG2 cells; HepG2, read-out: F1P 10% FBS EC50): 7.6 nM
EC50 (HepG2 cells; HepG2, read-out: F1P 50% HP EC50): 14.6 nM
pKa [3, 7]: 6

C[C@H]1[C@H](O)CN1c1nc(-c2ccc3c(c2)OCCNC3=O)c2c(n1)C(F)(F)CC2 [Example 166, 8-(7,7-difluoro-2-((2S,3R)-3-hydroxy-2-methylazetidin-1-yl)-6,7-dihydro-5H-cyclopenta[d]pyrimidin-4-yl)-3,4-dihydrobenzo[f][1,4]oxazepin-5(2H)-one]
IC50 (human KHK-C; ADP-Glo): 5 nM
OATP1B1 Substrate (human OATP1B1 [4]): YES
EC50 [1]: 39.7 nM
IC50 (human OATP1B1 [2]): 1740 nM
EC50 (HepG2 cells; [5]): 47.3 nM
EC50 (HepG2 cells; [6]): 36.7 nM

N#C[C@H]1CCN1c1nc(-c2ccc(C3(N)COC3)cc2)c2c(n1)C(F)(F)CC2 [Example 711, (R)-1-(4-(4-(3-aminooxetan-3-yl)phenyl)-7,7-difluoro-6,7-dihydro-5H-cyclopenta[d]pyrimidin-2-yl)azetidine-2-carbonitrile]
IC50 (human KHK-C): 6.1 nM
EC50 [1]: 35.2 nM
IC50 (human OATP1B1 [2]): 12800 nM
EC50 (HepG2 cells; [5]): 33.7 nM
EC50 (HepG2 cells; [6]): 28.2 nM
pKa [3, 7]: 6.3

C[C@H]1CCN1c1nc(N2CC[C@H](CC(=O)O)C2)cc(C(F)(F)F)c1C#N [Reference Compound 2, 2-((R)-1-(5-cyano-6-((S)-2-methylazetidin-1-yl)-4-(trifluoromethyl)pyridin-2-yl)pyrrolidin-3-yl)acetic acid, reference compound]
OATP1B1 Substrate (human OATP1B1 [4]): YES
IC50 (human OATP1B1 [2]): 267 nM

C[C@H]1[C@H](O)CN1c1nc(-c2cccc([S@@](C)(=N)=O)c2)c2c(n1)C(F)(F)CC2 (single isomer, unassigned) [Example 492]
IC50 (human KHK-C): 9 nM
IC50 (human KHK-A): 12.2 nM
EC50 [1]: 41.8 nM
IC50 (human OATP1B1 [2]): 31700 nM
EC50 (HepG2 cells; [5]): 22.2 nM
EC50 (HepG2 cells; [6]): 20.7 nM
pKa [3, 7]: 2.1

C[C@H]1CCN1c1nc2c(c(-c3ccc4c(N)nccc4c3)n1)CCC2 [Example 378, 6-[2-[(2S)-2-methylazetidin-1-yl]-6,7-dihydro-5H-cyclopenta[d]pyrimidin-4-yl]isoquinolin-1-amine]
IC50 (human KHK-C; ADP-Glo): 1 nM
IC50 (human KHK-A; ADP-Glo): 3.4 nM
EC50 [1]: 7.7 nM
IC50 (human OATP1B1 [2]): 1690 nM
pKa [3, 7]: 3.29
pKa [3, 8]: 6.64

C[C@H]1[C@H](O)CN1c1nc(-c2ccc3c(c2)OC[C@@H]3NS(C)(=O)=O)c2c(n1)C(F)(F)CC2 [Example 466, N—((R)-6-(7,7-difluoro-2-((2S,3R)-3-hydroxy-2-methylazetidin-1-yl)-6,7-dihydro-5H-cyclopenta[d]pyrimidin-4-yl)-2,3-dihydrobenzofuran-3-yl)methanesulfonamide]
IC50 (human KHK-C): 0.5 nM
IC50 (human KHK-A): 4 nM
EC50 [1]: 11.4 nM
IC50 (human OATP1B1 [2]): 3010 nM
EC50 (HepG2 cells; [5]): 20.5 nM
EC50 (HepG2 cells; [6]): 7.3 nM
pKa [3, 7]: 10.3

C[C@H]1[C@H](O)CN1c1nc(-c2ccc(C3(N)CS(=O)(=O)C3)cc2)c2c(n1)C(F)(F)CC2 [Example 491]
IC50 (human KHK-C): 2 nM
IC50 (human KHK-A): 24.2 nM
EC50 [1]: 35.8 nM
IC50 (human OATP1B1 [2]): 36000 nM
EC50 (HepG2 cells; [5]): 26.2 nM
EC50 (HepG2 cells; [6]): 31.9 nM
pKa [3, 7]: 4.5

C[C@H]1CCN1c1nc2c(c(-c3ccc(CN)s3)n1)CCC2 [Example 459, [5-[2-[(2S)-2-methylazetidin-1-yl]-6,7-dihydro-5H-cyclopenta[d]pyrimidin-4-yl]-2-thienyl]methanamine]
IC50 (human KHK-C): 6.6 nM
IC50 (human KHK-A): 11.1 nM
EC50 [1]: 42.1 nM
IC50 (human OATP1B1 [2]): 13200 nM
pKa [3, 7]: 4.27
pKa [3, 8]: 8.65

C[C@H]1CCN1c1nc(N2C[C@@H]3[C@@H](CC(=O)O)[C@@H]3C2)c2c(n1)C(F)(F)CC2 [Reference Compound 5, reference compound]
OATP1B1 Substrate (human OATP1B1 [4]): YES
IC50 (human OATP1B1 [2]): 720 nM

C[C@H]1[C@H](O)CN1c1nc2c(c(-c3cccc(S(N)(=O)=O)c3)n1)CCC2 [Example 209, 3-[2-[(2S,3R)-3-hydroxy-2-methyl-azetidin-1-yl]-6,7-dihydro-5H-cyclopenta[d]pyrimidin-4-yl]benzenesulfonamide]
OATP1B1 Substrate (human OATP1B1 [4]): YES
EC50 [1]: 249 nM
IC50 (human OATP1B1 [2]): 5570 nM
pKa [3, 7]: 3.54
pKa [3, 8]: 9.45

C[C@H]1CCN1c1nc(N2C[C@@H]3[C@@H](CC(=O)O)[C@@H]3C2)cc(C(F)(F)F)n1 [Reference Compound 1, reference compound]
OATP1B1 Substrate (human OATP1B1 [4]): YES
IC50 (human OATP1B1 [2]): 1190 nM
